Laboratory results from PubChem BioAssay AID1963838 (Molecular Pharmacology Branch, DTP, NCI, 2024).

Test system: 855422-203-R-J1-PDC complex spheroid viability
Assay: Anticancer human tumor 855422-203-R-J1-PDC patient-derived bladder carcinoma cell line growth inhibition [POLQ]
Settings: for IC50: curve of first compound; for viability, T/C: stronger effect = lower value
Summary of the method: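 Patient-derived tumour cells were co-cultured with HUVEC and mesenchymal stem cells as multicellular spheroids at 37 °C. They were treated with POLQ inhibitors (novobiocin, ART-558, RP6685) alone or combined with other agents. Top concentrations were at or near clinical Cmax (otherwise 10 microM; SN-38 at 1 microM), decreasing in half-log steps.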

[1] = second compound 0.0316 µM, first compound 0.0316 µM
[2] = second compound 0.0316 µM, first compound 0.1 µM
[3] = second compound 0.0316 µM, first compound 0.316 µM
[4] = second compound 0.0316 µM, first compound 1 µM
[5] = second compound 0.0316 µM, first compound 3.16 µM
[6] = second compound 0.0316 µM, first compound 10 µM
[7] = second compound 0.1 µM, first compound 0.0316 µM
[8] = second compound 0.1 µM, first compound 0.1 µM
[9] = second compound 0.1 µM, first compound 0.316 µM
[10] = second compound 0.1 µM, first compound 1 µM
[11] = second compound 0.1 µM, first compound 3.16 µM
[12] = second compound 0.1 µM, first compound 10 µM
[13] = second compound 0.316 µM, first compound 0.0316 µM
[14] = second compound 0.316 µM, first compound 0.1 µM
[15] = second compound 0.316 µM, first compound 0.316 µM
[16] = second compound 0.316 µM, first compound 1 µM
[17] = second compound 0.316 µM, first compound 3.16 µM
[18] = second compound 0.316 µM, first compound 10 µM
[19] = second compound 1 µM, first compound 0.0316 µM
[20] = second compound 1 µM, first compound 0.1 µM
[21] = second compound 1 µM, first compound 0.316 µM
[22] = second compound 1 µM, first compound 1 µM
[23] = second compound 1 µM, first compound 3.16 µM
[24] = second compound 1 µM, first compound 10 µM
[25] = second compound 3.16 µM, first compound 0.0316 µM
[26] = second compound 3.16 µM, first compound 0.1 µM
[27] = second compound 3.16 µM, first compound 0.316 µM
[28] = second compound 3.16 µM, first compound 1 µM
[29] = second compound 3.16 µM, first compound 3.16 µM
[30] = second compound 3.16 µM, first compound 10 µM
[31] = second compound 10 µM, first compound 0.0316 µM
[32] = second compound 10 µM, first compound 0.1 µM
[33] = second compound 10 µM, first compound 0.316 µM
[34] = second compound 10 µM, first compound 1 µM
[35] = second compound 10 µM, first compound 3.16 µM
[36] = second compound 10 µM, first compound 10 µM
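Note: spheroids exposed to compounds for seven days before readout.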

CC(C)n1c(=O)n(C)c2cnc3cc(F)c(-c4ccc(OCCCN5CCCCC5)nc4)cc3c21 + Nc1ccc(C#CCN(C(=O)Cc2ncc(C(F)(F)F)cc2C(F)(F)F)c2ccc(F)cc2)nn1
IC50 (second compound 0.0316 µM): > 10 µM
IC50 (second compound 0.1 µM): > 10 µM
IC50 (second compound 0.316 µM): > 10 µM
IC50 (second compound 1 µM): > 10 µM
IC50 (second compound 3.16 µM): > 10 µM
IC50 (second compound 10 µM): > 10 µM
viability, T/C [1]: 100%
viability, T/C [2]: 123%
viability, T/C [3]: 110%
viability, T/C [4]: 94.2%
viability, T/C [5]: 99.9%
viability, T/C [6]: 107%
viability, T/C [7]: 99.4%
viability, T/C [8]: 140%
viability, T/C [9]: 97.2%
viability, T/C [10]: 94.4%
viability, T/C [11]: 100%
viability, T/C [12]: 93.5%
viability, T/C [13]: 96.5%
viability, T/C [14]: 128%
viability, T/C [15]: 96.3%
viability, T/C [16]: 99.3%
viability, T/C [17]: 97%
viability, T/C [18]: 96.1%
viability, T/C [19]: 91.8%
viability, T/C [20]: 120%
viability, T/C [21]: 95.1%
viability, T/C [22]: 99.2%
viability, T/C [23]: 101%
viability, T/C [24]: 91.3%
viability, T/C [25]: 97.9%
viability, T/C [26]: 148%
viability, T/C [27]: 98%
viability, T/C [28]: 106%
viability, T/C [29]: 103%
viability, T/C [30]: 92.1%
viability, T/C [31]: 104%
viability, T/C [32]: 101%
viability, T/C [33]: 91.3%
viability, T/C [34]: 100%
viability, T/C [35]: 101%
viability, T/C [36]: 82.8%

CCc1cc2c(N3CCc4c(cc(Cn5ccnc5)cc4-c4cn(C)nc4C(F)(F)F)C3=O)cc(C)nc2c(OC)n1 + Nc1ccc(C#CCN(C(=O)Cc2ncc(C(F)(F)F)cc2C(F)(F)F)c2ccc(F)cc2)nn1
IC50 (second compound 0.0316 µM): 6 µM
IC50 (second compound 0.1 µM): 5.3 µM
IC50 (second compound 0.316 µM): 5.49 µM
IC50 (second compound 1 µM): 6.4 µM
IC50 (second compound 3.16 µM): 5.25 µM
IC50 (second compound 10 µM): 3.47 µM
viability, T/C [1]: 133%
viability, T/C [2]: 120%
viability, T/C [3]: 119%
viability, T/C [4]: 93.5%
viability, T/C [5]: 66.3%
viability, T/C [6]: 37.1%
viability, T/C [7]: 131%
viability, T/C [8]: 138%
viability, T/C [9]: 127%
viability, T/C [10]: 96%
viability, T/C [11]: 63.5%
viability, T/C [12]: 35.5%
viability, T/C [13]: 114%
viability, T/C [14]: 138%
viability, T/C [15]: 108%
viability, T/C [16]: 95.8%
viability, T/C [17]: 61.5%
viability, T/C [18]: 37.4%
viability, T/C [19]: 111%
viability, T/C [20]: 121%
viability, T/C [21]: 111%
viability, T/C [22]: 92.2%
viability, T/C [23]: 71.5%
viability, T/C [24]: 37.1%
viability, T/C [25]: 110%
viability, T/C [26]: 118%
viability, T/C [27]: 133%
viability, T/C [28]: 92.5%
viability, T/C [29]: 61.2%
viability, T/C [30]: 38.6%
viability, T/C [31]: 116%
viability, T/C [32]: 115%
viability, T/C [33]: 98%
viability, T/C [34]: 77.4%
viability, T/C [35]: 52.2%
viability, T/C [36]: 31.7%

CCc1cc2c(N3CCc4c(cc(Cn5ccnc5)cc4-c4cn(C)nc4C(F)(F)F)C3=O)ccnc2c(OC)n1 + Nc1ccc(C#CCN(C(=O)Cc2ncc(C(F)(F)F)cc2C(F)(F)F)c2ccc(F)cc2)nn1
IC50 (second compound 0.0316 µM): 9.24 µM
IC50 (second compound 0.1 µM): 9.09 µM
IC50 (second compound 0.316 µM): 6.82 µM
IC50 (second compound 1 µM): 8.55 µM
IC50 (second compound 3.16 µM): 7.63 µM
IC50 (second compound 10 µM): 6.77 µM
viability, T/C [1]: 107%
viability, T/C [2]: 142%
viability, T/C [3]: 133%
viability, T/C [4]: 93.7%
viability, T/C [5]: 87%
viability, T/C [6]: 46.4%
viability, T/C [7]: 125%
viability, T/C [8]: 142%
viability, T/C [9]: 130%
viability, T/C [10]: 93.1%
viability, T/C [11]: 76.3%
viability, T/C [12]: 45.8%
viability, T/C [13]: 136%
viability, T/C [14]: 147%
viability, T/C [15]: 133%
viability, T/C [16]: 88.1%
viability, T/C [17]: 72.6%
viability, T/C [18]: 39.4%
viability, T/C [19]: 98.1%
viability, T/C [20]: 121%
viability, T/C [21]: 109%
viability, T/C [22]: 115%
viability, T/C [23]: 72.2%
viability, T/C [24]: 46.5%
viability, T/C [25]: 148%
viability, T/C [26]: 131%
viability, T/C [27]: 125%
viability, T/C [28]: 124%
viability, T/C [29]: 72.6%
viability, T/C [30]: 43.1%
viability, T/C [31]: 98.9%
viability, T/C [32]: 122%
viability, T/C [33]: 112%
viability, T/C [34]: 111%
viability, T/C [35]: 72.6%
viability, T/C [36]: 38.5%

COc1cc2cc(C(=O)CCC(=O)O)sc2cc1OC + Nc1ccc(C#CCN(C(=O)Cc2ncc(C(F)(F)F)cc2C(F)(F)F)c2ccc(F)cc2)nn1
IC50 (second compound 0.0316 µM): > 10 µM
IC50 (second compound 0.1 µM): > 10 µM
IC50 (second compound 0.316 µM): > 10 µM
IC50 (second compound 1 µM): > 10 µM
IC50 (second compound 3.16 µM): > 10 µM
IC50 (second compound 10 µM): > 10 µM
viability, T/C [1]: 97.8%
viability, T/C [2]: 121%
viability, T/C [3]: 97.6%
viability, T/C [4]: 86.3%
viability, T/C [5]: 109%
viability, T/C [6]: 94.5%
viability, T/C [7]: 99.8%
viability, T/C [8]: 101%
viability, T/C [9]: 91%
viability, T/C [10]: 82%
viability, T/C [11]: 138%
viability, T/C [12]: 109%
viability, T/C [13]: 104%
viability, T/C [14]: 105%
viability, T/C [15]: 90%
viability, T/C [16]: 94.1%
viability, T/C [17]: 107%
viability, T/C [18]: 92%
viability, T/C [19]: 86.8%
viability, T/C [20]: 104%
viability, T/C [21]: 102%
viability, T/C [22]: 98.7%
viability, T/C [23]: 97.3%
viability, T/C [24]: 90.4%
viability, T/C [25]: 92.4%
viability, T/C [26]: 111%
viability, T/C [27]: 94.9%
viability, T/C [28]: 97.5%
viability, T/C [29]: 97.1%
viability, T/C [30]: 88.6%
viability, T/C [31]: 92.8%
viability, T/C [32]: 92%
viability, T/C [33]: 87.1%
viability, T/C [34]: 102%
viability, T/C [35]: 96%
viability, T/C [36]: 88.5%

O=C(Nc1ccc(O)c(NS(=O)(=O)c2ccc(F)cc2)c1)c1ccc(-c2ccccc2)cc1 + Nc1ccc(C#CCN(C(=O)Cc2ncc(C(F)(F)F)cc2C(F)(F)F)c2ccc(F)cc2)nn1
IC50 (second compound 0.0316 µM): > 10 µM
IC50 (second compound 0.1 µM): > 10 µM
IC50 (second compound 0.316 µM): > 10 µM
IC50 (second compound 1 µM): > 10 µM
IC50 (second compound 3.16 µM): > 10 µM
IC50 (second compound 10 µM): > 10 µM
viability, T/C [1]: 93.4%
viability, T/C [2]: 119%
viability, T/C [3]: 108%
viability, T/C [4]: 88.1%
viability, T/C [5]: 105%
viability, T/C [6]: 77.5%
viability, T/C [7]: 95.5%
viability, T/C [8]: 105%
viability, T/C [9]: 94.5%
viability, T/C [10]: 103%
viability, T/C [11]: 117%
viability, T/C [12]: 63.8%
viability, T/C [13]: 91.3%
viability, T/C [14]: 114%
viability, T/C [15]: 102%
viability, T/C [16]: 99.2%
viability, T/C [17]: 106%
viability, T/C [18]: 77.4%
viability, T/C [19]: 92.8%
viability, T/C [20]: 92.8%
viability, T/C [21]: 95.5%
viability, T/C [22]: 95.2%
viability, T/C [23]: 112%
viability, T/C [24]: 73.6%
viability, T/C [25]: 93.6%
viability, T/C [26]: 94.2%
viability, T/C [27]: 91.3%
viability, T/C [28]: 96.3%
viability, T/C [29]: 93.7%
viability, T/C [30]: 62.2%
viability, T/C [31]: 92%
viability, T/C [32]: 90.1%
viability, T/C [33]: 89.2%
viability, T/C [34]: 88.7%
viability, T/C [35]: 95.1%
viability, T/C [36]: 51.5%
